{"source": "patent US12178791B2", "about": "“Haloallylamine sulfone derivative inhibitors of lysyl oxidases and uses thereof” (Syntara Limited, priority 2018, dated 2024)", "key": {"[1]": {"test_system": "deep dermal burn injuries", "experiment": "Porcine burn injury model", "assay_type": "in vivo, pigs", "details": "3% topical daily for 4 weeks", "experimental": "Pigs received 4×25 cm^2 deep dermal burn injuries, 2 on each flank. From the time of re-epithelialisation, on each pig, 2 wounds were treated with 3% Compound 1 cream daily for 4 weeks and 2 received control cream. Pigs were euthanized and tissue was processed for analysis."}, "rhSSAO": {"biological_target": "rhSSAO (Homo sapiens (Human), UniProt Q16853)", "sequence (Q16853 whole entry)": "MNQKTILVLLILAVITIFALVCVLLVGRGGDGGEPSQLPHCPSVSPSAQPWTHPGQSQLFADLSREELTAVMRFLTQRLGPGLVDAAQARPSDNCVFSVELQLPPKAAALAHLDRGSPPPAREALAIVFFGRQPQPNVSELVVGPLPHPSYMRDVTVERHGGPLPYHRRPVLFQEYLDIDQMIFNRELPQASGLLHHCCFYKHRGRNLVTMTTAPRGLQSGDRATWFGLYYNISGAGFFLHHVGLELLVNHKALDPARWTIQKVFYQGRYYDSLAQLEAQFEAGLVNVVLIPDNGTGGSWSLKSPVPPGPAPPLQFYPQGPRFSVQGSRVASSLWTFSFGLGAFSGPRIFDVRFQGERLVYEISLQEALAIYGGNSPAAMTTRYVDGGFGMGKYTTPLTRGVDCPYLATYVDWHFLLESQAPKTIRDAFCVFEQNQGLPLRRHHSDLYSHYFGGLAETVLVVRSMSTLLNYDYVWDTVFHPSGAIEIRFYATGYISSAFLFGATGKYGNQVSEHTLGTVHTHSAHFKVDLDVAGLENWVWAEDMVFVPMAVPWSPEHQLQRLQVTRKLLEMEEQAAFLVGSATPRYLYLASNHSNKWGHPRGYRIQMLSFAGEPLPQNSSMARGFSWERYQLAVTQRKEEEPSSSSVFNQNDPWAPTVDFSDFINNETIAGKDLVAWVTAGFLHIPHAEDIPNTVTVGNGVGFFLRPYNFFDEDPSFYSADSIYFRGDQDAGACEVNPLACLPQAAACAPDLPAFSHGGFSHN", "experiment": "Measurement of substrate turnover by SSAO", "assay_type": "biochemical", "details": "compound 2.5 mM, relative to background (dimethyl sulfoxide only)", "experimental": "In brief, the assay employed determines the substrate propensity of a compound relative to background (dimethyl sulfoxide only). Compound oxidation by rhSSAO was measured by fluorometric assay (Holt and Palcic, 2006). Briefly, rhSSAO was incubated for 2 hours at 37° C. in HEPES buffer before the addition of an equal volume of Amplex Red ([…]), horseradish peroxidase (4 U/ml), and Compound (2.5 mM) in the same buffer. The kinetics of the formation of resorufin was measured immediately using Optima reader (BMG Labtech GmbH, Ortenburg, Germany), at 37° C."}, "[2]": {"test_system": "scar tissue after excision of dermal tissue", "experiment": "Rodent injury model", "assay_type": "in vivo, mice", "details": "1% solution topical", "experimental": "Mice received injury by excision of dermal tissue. In the treatment group, 1% Compound 1 solution was applied topically from 24 hours post injury to 1 week post injury. Wounds were then left to heal for an additional week. Mice were euthanized at 14 days post injury and the tissue was analyzed for collagen I content, and changes in gross morphology and histology."}, "lysyl oxidase": {"test_system": "lysyl oxidase", "experiment": "Target engagement: lysyl oxidase activity in the aorta", "assay_type": "in vivo, Wistar rats", "experimental": "Sample preparation: All preparation activities were performed on ice, with buffers in presence of proteases inhibitors (PMSF: Sigma P7626, 0.25 mM, Aprotinin: Sigma A6279, 1 μL per mL) (Methods in Cell Biology, 2018; 143: 147-156). The surrounding adventitia and muscle/fat from the frozen aorta sample was removed in ice-cold Wash Buffer (0.15 M NaCl, 50 mM sodium borate, pH=8.0, with protease inhibitors) using fine forceps, under a dissecting microscope. The aorta was blotted on a Kimwipe and weighed in a 1.5 mL Eppendorf tube and left on ice. After snap-freezing the aorta in liquid nitrogen, a mortar and the pestle (stored at −80° C.) was used to pulverize the tissue. The pulverized tissue was transferred to a designated tube containing metal beads, 10× v/w Wash Buffer+protease inhibitors. The tissues was homogenized for 5 seconds using a bead-mill. The homogenate was centrifuged at 10,000×g for 10 minutes at 4° C. and the supernatant was discarded. Homogenization and washing steps were repeated twice more. […]\nAssay: Pargyline (final concentration 0.5 mM) and mofegiline (final concentration 1 μM) were added to the samples. […] Plate fluorescence was then measured every 2.5 min (Ex: 544 nm/Em: 590 nm/gain: 1260; 37° C.) on Fluostar™.\n[…] The responses were normalised to the activity measured in animals treated with saline (control)."}, "kidney fibrosis (UUO)": {"test_system": "kidney fibrosis (UUO)", "experiment": "Unilateral ureteral obstruction (UUO) model of acute kidney fibrosis", "assay_type": "in vivo, mice", "details": "10 mg/kg daily orally, 14 days", "experimental": "A 14-day unilateral ureteric obstruction (UUO) model of acute kidney fibrosis in mice was conducted to mimic the different stages of obstructive nephropathy leading to tubulointerstitial fibrosis in an accelerated manner UUO surgery was performed by ligation of the left ureter and induced decrease of left kidney thickness and atrophy (indicated by a significant decrease in kidney weight and ratio of kidney/body weight when compared to the contralateral side) as well as a significant increase in kidney fibrosis. Treatment groups received Compound 33 (10 mg/kg daily) orally for the duration of the study. Compound 33 increased kidney weight and thickness and reduced the area of fibrosis as measured by Picrosirius Red (FIG. 9). Captopril (˜32 mg/kg/day in drinking water) was used as a positive control."}, "[3]": {"test_system": "bleomycin-induced lung fibrosis", "experiment": "Bleomycin-induced lung fibrosis model", "assay_type": "in vivo, C57Bl/6 mice", "details": "daily oral gavage for 21 days", "experimental": "C57Bl/6 mice were given 1.5 U/kg amounts of generic clinical Bleomycin (Blenoxane) via oropharyngeal administration. Compound 33 was dosed daily via oral gavage for 21 days, after which time, tissues were harvested and analyzed."}, "[4]": {"test_system": "CCl4 hepatic fibrosis / 4t1 metastasis", "experiment": "CCl4 induced liver fibrosis with orthotopic 4t1 breast cancer cells (fibrosis associated metastasis)", "assay_type": "in vivo, BALB/c mice", "details": "20 mg/kg daily ip", "experimental": "Hepatic fibrosis was induced by treated of BALB/c mice twice weekly with 1 mg/kg carbon tetrachloride (CCl4) for a period of 8 wks."}, "[5]": {"details": "vs control cream, hydrochloride"}}, "note": "“Also recorded” adds a separate entry of the source. Where a name gives a salt, the structure may show the parent alone."}
{"compound": "NC/C=C(\\F)CS(=O)(=O)c1ccccc1", "note": "[Compound 1, (Z)-3-fluoro-4-(phenylsulfonyl)but-2-en-1-amine hydrochloride]", "values": [{"measurement": "Gross morphology and histology: thick collagen fibers", "setting": "[1]", "result": "reduced density"}, {"measurement": "LOX activity in treated tissue", "setting": "[1]; [5]", "result": "reduction; also recorded: significantly reduced"}, {"measurement": "total collagen I protein", "setting": "[1]; [5]", "result": "reduction; also recorded: significantly reduced"}, {"measurement": "Substrate activity for rhSSAO", "setting": "rhSSAO", "result": "no significant turnover"}, {"measurement": "Collagen I quantity (LCMS, normalized for protein content)", "setting": "[2]; 24 hours to 1 week post injury, analysis 14 days post injury, vs control, hydrochloride", "result": "reduction in collagen; also recorded: reduced"}, {"measurement": "Histology: collagen bundles in scar tissue", "setting": "[2]; 14 days post injury", "result": "decreased density of bundles"}]}
{"compound": "NC/C=C(\\F)CS(=O)(=O)c1cccc2cccnc12", "note": "[Compound 33, (Z)-3-fluoro-4-(quinolin-8-ylsulfonyl)but-2-en-1-amine dihydrochloride]", "values": [{"measurement": "half-life of recovery of lysyl oxidase activity (aorta)", "setting": "lysyl oxidase; single oral dose", "result": 24, "unit": "h"}, {"measurement": "lysyl oxidase enzymatic activity in rat aorta", "setting": "lysyl oxidase; single oral dose at 5, 10 or 30 mg/kg, vs untreated control", "result": "dose-dependent block"}, {"measurement": "area of fibrosis as measured by Picrosirius Red", "setting": "kidney fibrosis (UUO)", "result": "reduced"}, {"measurement": "kidney weight and thickness", "setting": "kidney fibrosis (UUO)", "result": "increased"}, {"measurement": "lung weight", "setting": "[3]", "result": "significantly reduced"}, {"measurement": "reduction of immature (DHLNL) cross-links per lung", "setting": "[3]", "result": 37, "unit": "%"}, {"measurement": "reduction of mature (PYD) cross-links per lung", "setting": "[3]", "result": 45, "unit": "%"}, {"measurement": "Ashcroft score", "setting": "[3]; dihydrochloride", "result": "reduce; also recorded: significantly reduced"}, {"measurement": "collagen cross-links in the liver", "setting": "[4]", "result": "significantly reduced"}, {"measurement": "primary tumor growth or collagen cross-links (primary tumor)", "setting": "[4]", "result": "No differences"}, {"measurement": "liver fibrosis", "setting": "[4]; 8 wks CCl4", "result": "significantly reduced"}, {"measurement": "metastatic load in the liver", "setting": "[4]; dihydrochloride", "result": "reduce; also recorded: significantly reduced"}]}
